Patent US6608070B1, “2,3-substituted indole compounds as anti-inflammatory and analgesic agents” (priority 1999, dated 2003)
Structures can show the parent of a compound that is named as a salt.

| Compound | melting point |
| --- | --- |
| CC(C)(C)c1ccnc(C(=O)c2[nH]c3cc(Cl)ccc3c2CC(=O)O)c1 [Example 70, [2-(4-tert-Butylpyridine-2-carbonyl)-6-chloro-1H-indol-3-yl]acetic Acid] | 203 to 205 °C |
| Cc1ccnc(C(=O)c2[nH]c3ccc(Cl)cc3c2CC(=O)O)c1 [Example 36, [5-Chloro-2-(4-methylpyridine-2-carbonyl)-1H-indol-3-yl]acetic Acid] | 230 to 231 °C |
| O=C(O)Cc1c(C(=O)c2cccnc2)[nH]c2cc(Cl)ccc12 [Example 92, [6-Chloro-2-(pyridine-3-carbonyl)-1H-indol-3-yl]acetic Acid] | 267 to 268 °C |
| Cc1cccc(C(=O)c2[nH]c3cc(Cl)ccc3c2CC(=O)O)n1 [Example 78, [6-Chloro-2-(6-methylpyridine-2-carbonyl)-1H-indol-3-yl]acetic Acid] | 230 to 231 °C |
| Cc1ccnc(C(=O)c2[nH]c3ccc(Cl)cc3c2CC(=O)NCCN)c1 [Example 272, [5-Chloro-2-(4-methylpyridine-2-carbonyl)-1H-indol-3-yl]-N-(2-aminoethyl)acetamide] | 165.7 °C |
| Cc1cc(C)nc(C(=O)c2[nH]c3ccc(Cl)cc3c2CC(=O)O)c1 [Example 120, [5-Chloro-2-(4,6-dimethylpyridine-2-carbonyl)-1H-indol-3-yl]acetic Acid] | 233 to 235 °C |
| O=C(O)Cc1c(C(=O)c2ccc(Cl)cc2)[nH]c2cc(Cl)ccc12 [Example 9, [6-Chloro-2-(4-chlorobenzoyl)-1H-indol-3-yl]acetic Acid] | 181 to 183 °C |
| Cc1cnc(C(=O)c2[nH]c3cc(Cl)ccc3c2CC(=O)O)s1 [Example 235, [6Chloro-2-(5-methylthiazole-2-carbonyl)-1H-indol-3-yl]acetic Acid] | 225 to 226 °C |
| CC(C)c1ccnc(C(=O)c2[nH]c3ccc(Cl)cc3c2CC(=O)O)c1 [Example 64, [5-Chloro-2-(4-isopropylpyridine-2-carbonyl)-1H-indol-3-yl]acetic Acid] | 227 to 228 °C |
| COCc1ccoc1C(=O)c1[nH]c2cc(Cl)ccc2c1CC(=O)O [Example 240, [6-Chloro-2-[3-methoxymethyl-2-furoyl]-1H-indol-3-yl]acetic Acid] | 212 to 213 °C |
| O=C(O)Cc1c(C(=O)c2cc(CO)ccn2)[nH]c2cc(Cl)ccc12 [Example 96, [6-Chloro-2-[4-(hydroxymethyl)pyridine-2-carbonyl]-1H-indol-3-yl]acetic Acid] | 210 to 212 °C |
| O=C(O)Cc1c(C(=O)c2ccc(Cl)cc2)[nH]c2cc(Cl)ccc12 (as salt: malonate) [Example 9, [6-Chloro-2-(4-chlorobenzoyl)-1H-indol-3-yl]acetic Acid] | 189 to 190 °C |
| Cc1cccc(C(=O)c2[nH]c3ccc(Cl)cc3c2CC(=O)O)n1 [Example 38, [5-Chloro-2-(6-methylpyridine-2-carbonyl)-1H-indol-3-yl]acetic Acid] | 225 to 226 °C |
| O=C(O)Cc1c(C(=O)c2ccccc2)[nH]c2cc(Cl)ccc12 [Example 2, (2-Benzoyl-6-chloro-1H-indol-3-yl)acetic Acid] | 183 to 186 °C |
| O=C(O)Cc1c(C(=O)c2ccc(Cl)c(F)c2)[nH]c2cc(Cl)ccc12 [Example 204, [6-Chloro-2-(4-chloro-3-fluorobenzoyl)-1H-indol-3-yl]acetic Acid] | 179 to 182 °C |
| O=C(O)Cc1c(C(=O)c2ccc(Cl)cn2)[nH]c2ccc(Cl)cc12 [Example 86, [5-Chloro-2-(5-chloropyridine-2-carbonyl)-1H-indol-3-yl]acetic Acid] | 259 to 260 °C |
| O=C(O)Cc1c(C(=O)c2ccncc2)[nH]c2cc(Cl)ccc12 [Example 94, [6-Chloro-2-(pyridine-4-carbonyl)-1H-indol-3-yl]acetic Acid] | 256 to 257 °C |
| Cc1nnsc1C(=O)c1[nH]c2cc(Cl)ccc2c1CC(=O)O [Example 231, [6-Chloro-2-(4-methyl-1,2,3-thiadiazole-5-carbonyl)-1H-indol-3-yl]acetic Acid] | 215 to 216 °C |
| Cc1cc(C(=O)c2[nH]c3cc(Cl)ccc3c2CC(=O)O)no1 [Example 227, [6-Chloro-2-(5-methylisoxazole-3-carbonyl)-1H-indol-3-yl]acetic Acid] | 227 to 229 °C |
| CC(C)(O)c1ccoc1C(=O)c1[nH]c2cc(Cl)ccc2c1CC(=O)O [Example 238, [6-Chloro-2-[3-(1-hydroxy-1-methylethyl)-2-furoyl]1H-indol-3-yl]acetic Acid] | 229 to 230 °C |
| COc1ccnc(C(=O)c2[nH]c3cc(Cl)ccc3c2CC(=O)O)c1 [Example 106, [6-Chloro-2-(4-methoxypyridine-2-carbonyl)-1H-indol-3-yl]acetic Acid] | 213 °C (dec.) |
| Cc1ccnc(C(=O)c2[nH]c3ccc(Cl)cc3c2CC(=O)O)c1C [Example 100, [5-Chloro-2-(3,4-dimethylpyridine-2-carbonyl)-1H-indol-3-yl]acetic Acid] | 236 to 237 °C |

| Compound | melting point |
| --- | --- |
| O=C(O)Cc1c(C(=O)c2nccs2)[nH]c2ccc(Cl)cc12 [Example 41, [5-Chloro-2-(thiazole-2-carbonyl)-1H-indol-3-yl]acetic Acid] | 230 to 231 °C |
| CCOC(=O)C=Cc1ccc(Cl)cc1NS(=O)(=O)c1ccc(C)cc1 [Example 293, 3-[4-Chloro-2-(toluene-4-sulfonylamino)-phenyl]-acrylic Acid Ethyl Ester] | 124 to 127 °C |
| CCOC(=O)C=Cc1ccc(Cl)cc1N(CC(=O)c1ccc(Cl)cc1)S(=O)(=O)c1ccc(C)cc1 [Example 295, 3-{4-Chloro-2-[[2-(4-chloro-phenyl)-2-oxo-ethyl]-(toluene-4-sulfonyl)-amino]-phenyl}-acrylic Acid Ethyl Ester] | 162 to 165 °C |
| CCc1ccnc(C(=O)c2[nH]c3ccc(Cl)cc3c2CC(=O)O)c1F [Example 112, [5-Chloro-2-(4-ethyl-3-fluoropyridine-2-carbonyl)-1H-indol-3-yl]acetic Acid] | 208 °C |
| Cc1cnc(C(=O)c2[nH]c3ccc(Cl)cc3c2CC(=O)O)s1 [Example 233, [5-Chloro-2-(5-methylthiazole-2-carbonyl)-1H-indol-3-yl]acetic Acid] | 231 to 233 °C |
| CCc1ccnc(C(=O)c2[nH]c3ccc(Cl)cc3c2CC(=O)O)c1 [Example 60, [5-Chloro-2-(4-ethylpyridine-2-carbonyl)-1H-indol-3-yl]acetic Acid] | 217 to 218 °C |
| Cc1cccnc1C(=O)c1[nH]c2cc(Cl)ccc2c1CC(=O)O [Example 74, [6-Chloro-2-(3-methylpyridine-2-carbonyl)-1H-indol-3-yl]acetic Acid] | 195 to 196 °C |
| CCOC(=O)Cc1c(C(=O)c2ccc(Cl)cc2)[nH]c2cc(Cl)ccc12 [Example 297, [6-Chloro-2-(4-chloro-benzoyl)-1H-indol-3-yl]-acetic Acid Ethyl Ester] | 186 to 188 °C |
| CCc1ccnc(C(=O)c2[nH]c3cc(Cl)ccc3c2CC(=O)O)c1 [Example 58, [6-Chloro-2-(4-ethylpyridine-2-carbonyl)-1H-indol-3-yl]acetic Acid] | 215 to 216 °C (dec.) |
| Cc1cc(C(=O)c2[nH]c3ccc(Cl)cc3c2CC(=O)O)no1 [Example 225, [5-Chloro-2-(5-methylisoxazole-3-carbonyl)-1H-indol-3-yl]acetic Acid] | 253 to 255 °C |
| CC(C)(C)c1ccnc(C(=O)c2[nH]c3ccc(Cl)cc3c2CC(=O)O)c1 [Example 72, [2-(4-tert-Butylpyridine-2-carbonyl)-5-chloro-1H-indol-3-yl]acetic Acid] | 209 to 211 °C |
| Cc1cnc(C(=O)c2[nH]c3ccc(Cl)cc3c2CC(=O)O)cc1C [Example 102, [5-Chloro-2-(4,5-dimethylpyridine-2-carbonyl)-1H-indol-3-yl]acetic Acid] | 245 to 246 °C |
| Cc1cnc(C(=O)c2[nH]c3cc(Cl)ccc3c2CC(=O)O)c(C)c1 [Example 110, [6-Chloro-2-(3,5-dimethylpyridine-2-carbonyl)-1H-indol-3-yl]acetic Acid] | 199 to 200 °C |
| Cc1ccc(C(=O)c2[nH]c3cc(Cl)ccc3c2CC(=O)O)nc1 [Example 32, [6-Chloro-2-(5-methylpyridine-2-carbonyl)-1H-indol-3-yl]acetic Acid] | 235 to 238 °C |
| O=C(O)Cc1c(C(=O)c2ccc(Cl)cn2)[nH]c2cc(Cl)ccc12 [Example 88, [6-Chloro-2-(5-chloropyridine-2-carbonyl)-1H-indol-3-yl]acetic Acid] | 242 to 244 °C |
| Cc1nnsc1C(=O)c1[nH]c2ccc(Cl)cc2c1CC(=O)O [Example 229, [5-Chloro-2-(4-methyl-1,2,3-thiadiazole-5-carbonyl)-1H-indol-3-yl]acetic Acid] | 229 to 230 °C |
| O=C(O)Cc1c(C(=O)c2cccs2)[nH]c2cc(Cl)ccc12 [Example 236, [6-Chloro-2-(2-thienyl)carbonylindol-3-yl]acetic Acid] | 177 to 178 °C |
| O=C(O)Cc1c(C(=O)c2cc3ccccc3cn2)[nH]c2cc(Cl)ccc12 [Example 223, [6-Chloro-2-(isoquinoline-3-carbonyl)-1H-indol-3-yl]acetic Acid] | 236 to 237 °C |
| Cc1ccnc(C(=O)c2[nH]c3ccc(Cl)cc3c2CC(=O)NCCO)c1 [Example 269, [5-Chloro-2-(4-methylpyridine-2-carbonyl)-1H-indol-3-yl]-N-(2-hydroxyethyl)acetamide] | 195.9 °C |
| Cc1cnc(C(=O)c2[nH]c3cc(Cl)ccc3c2CC(=O)O)cc1C [Example 104, [6-Chloro-2-(4,5-dimethylpyridine-2-carbonyl)-1 H-indol-3-yl]acetic Acid] | 226 to 228 °C |
| Cc1ccc(C(=O)c2[nH]c3ccc(Cl)cc3c2CC(=O)O)nc1 [Example 80, [5-Chloro-2-(5-methylpyridine-2-carbonyl)-1H-indol-3-yl]acetic Acid] | 247 to 248 °C |
| O=C(O)Cc1c(C(=O)c2cc(Cl)ccn2)[nH]c2ccc(Cl)cc12 [Example 90, [5-Chloro-2-(4-chloropyridine-2-carbonyl)-1H-indol-3-yl]acetic Acid] | 243 to 244 °C |
